The record followed here is patent publication US8501955B2, “Acetamide derivatives as glucokinase activators, their process and medicinal application” (Advinus Therapeutics Private Limited, priority 2007, dated 2013).

The structures appear in SMILES notation. pEC50: −log10 of the molar value.

This test concerns the target T1, purified human recombinant GK (Homo sapiens, UniProt P35557).
T1 sequence (P35557 1-465): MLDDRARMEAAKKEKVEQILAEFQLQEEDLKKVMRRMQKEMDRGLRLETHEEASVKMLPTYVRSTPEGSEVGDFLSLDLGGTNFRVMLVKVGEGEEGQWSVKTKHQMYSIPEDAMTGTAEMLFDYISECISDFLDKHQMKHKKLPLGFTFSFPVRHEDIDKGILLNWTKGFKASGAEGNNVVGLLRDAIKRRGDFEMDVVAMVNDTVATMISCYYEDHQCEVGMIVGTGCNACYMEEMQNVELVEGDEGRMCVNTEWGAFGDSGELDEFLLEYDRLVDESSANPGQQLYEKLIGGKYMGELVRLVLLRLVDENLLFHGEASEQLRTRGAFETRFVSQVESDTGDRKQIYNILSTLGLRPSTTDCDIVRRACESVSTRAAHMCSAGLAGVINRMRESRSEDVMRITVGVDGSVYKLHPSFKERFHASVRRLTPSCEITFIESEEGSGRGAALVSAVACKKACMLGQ
Briefly: Glucokinase activity assay (coupled enzymatic GK/G6PD assay, NADH absorbance at 340 nm). In kind it is biochemical. To be noted: for pEC50: EC50 of % change in S0.5 of glucokinase for glucose, sigmoidal fit, read-out: EC50 (with respect to % ΔS0.5); for Emax: Emax of % change in S0.5, vehicle S0.5 = 0%, 0 mM glucose = 100%, read-out: % Emax (with respect to % ΔS0.5). From the text:
The glucokinase (GK) assay is a coupled enzymatic assay. GK catalyzes the first step of glycolysis, the conversion of glucose to glucose-6-phosphate (G6P) in the presence of ATP. G6P in turn is converted by glucose-6-phosphate dehydrogenase (G6PD) to 6-phosphogluconate, a process that requires NAD, resulting in NADH formation. Since the GK-catalyzed step is the rate-limiting step of this coupled enzymatic process, the rate of accumulation of 6-phosphogluconate and NADH is directly proportional to the rate of glucose phosphorylation by GK. The rate of the GK-catalyzed reaction can therefore be measured by monitoring the increase in NADH absorbance at 340 nm.
The assay is carried out according to the protocol outlined in Hariharan et al (1997), Diabetes 46: 11-16. Briefly, the test compounds are incubated in a reaction mix containing 25 mM HEPES (pH 7.2), 10 mM MgCl2, 100 mM KCl, 5 mM ATP, 2 mM DTT, 0.5 mM NAD, 1 U/ml Leuconostoc mesenteroides G6PD, 0.3 U/ml of purified human recombinant GK, and different concentrations of glucose. Enzymatic activity is calculated from the initial reaction velocity, measured from the change in NADH absorbance as a function of time.
Compounds described in formula (I), in concentration ranges from 1.0 nM to […] are tested in the purified human recombinant glucokinase assay described above.
A compound is considered to be a glucokinase activator if it, in its testable range of concentrations, yields a higher rate of glucose phosphorylation than in its absence at a particular glucose concentration, for example at 5 mM glucose.
Compounds of general formula (I) are tested in the in vitro GK enzymatic assay to monitor dose-dependent effect on glucokinase activation (in kinetic mode), as described above, at various glucose concentrations. The S0.5 of glucokinase for glucose at different concentration of each compound of interest is calculated from the following modified version of the Michaelis-Menten equation, V=Vmax[S]^n/(S0.5^n+[S]^n), where [S] is the glucose concentration and n is the Hill coefficient (taken as 1.7 to account for the sigmoidal kinetics of glucokinase with respect to glucose). The S0.5 is plotted against the log of the compound concentration. The change in the S0.5 of glucokinase (ΔS0.5) for glucose is calculated by subtracting the S0.5 at each concentration of the compound from the S0.5 in the vehicle control. The ΔS0.5 is then normalized to a percent scale, where the S0.5 in the vehicle control is set to 0% and 0 mM glucose is set to 100%. The % ΔS0.5 is then plotted against the log of the compound concentration. The EC50 and Emax of % change in S0.5 is obtained from the sigmoidal fit of the data. Detailed protocol has been described in our copending application no. WO 2008/104994 which is incorporated herein by reference. Characterization data of some representative glucokinase activators of the present disclosure, which are illustrative but not limiting, are given in table 1 below.

In the case of `O=C(O)c1ccc(Oc2cnc(NC(=O)C(O[C@@H]3CCOC3)c3ccc(S(=O)(=O)C4CC4)cc3)s2)cc1` (single isomer, unassigned) [Example H9A], the negative-log EC50 (pEC50) is 7.66.
For `O=C(Nc1ncc(Oc2ccc(C(=O)N3CCC3)cc2)s1)C(Oc1ccc(F)cc1F)c1ccc(S(=O)(=O)C2CC2)cc1` (single isomer, unassigned; (+)) [Example H6A, (+)N-{5-[4-(Azetidine-1-carbonyl)-phenoxy]-thiazol-2-yl}-2-(4-cyclopropanesulfonyl-phenyl)-2-(2,4-difluoro-phenoxy)-acetamide], the negative logarithm of the EC50 (pEC50) was 6.96 and the Emax came out at 93%.
With `O=C(O)Cc1nc(NC(=O)C(Oc2ccc(F)cc2F)c2ccc(S(=O)(=O)N3CCCCC3)cc2)sc1Cl` (single isomer, unassigned; (-)) [Example H3A, (−) (5-Chloro-2-{2-(2,4-difluoro-phenoxy)-2-[4-(piperidine-1-sulfonyl)-phenyl]-acetylamino}-thiazol-4-yl)-acetic acid], the pEC50 is 6.37 and the Emax is 90%.
In the case of `O=C(Nc1ncc(Cl)s1)C(Oc1ccc(F)cc1F)c1ccc(S(=O)(=O)C2CC2)cc1` (stereo not shown) [Example A2, N-(5-Chlorothiazol-2-yl)-2-(4-cyclopropanesulfonylphenyl)-2-(2,4-difluorophenoxy)acetamide], the pEC50 is 6.89 and the Emax came to 95%.
For the molecule `O=C(Nc1ncc(F)s1)C(Oc1ccc(F)cc1F)c1ccc(S(=O)(=O)C2CCCC2)cc1` (stereo not shown) [Example A11, 2-(4-Cyclopentanesulfonylphenyl)-2-(2,4-difluorophenoxy)-N-(5-fluoro-thiazol-2-yl)acetamide], the pEC50 is 6.96 and the Emax was 95%.
Regarding `O=C(Nc1nccs1)C(Oc1ccc(Cl)cc1)c1ccc(S(=O)(=O)C2CCCC2)cc1` (stereo not shown) [Example A12, 2-(4-Chlorophenoxy)-2-(4-cyclopentanesulfonylphenyl)-N-thiazol-2-yl-acetamide], the negative logarithm of the EC50 (pEC50) was 6.77 and the Emax worked out at 90%.
Taken in the same sequence, the figures for `O=C(Nc1nncs1)C(Oc1ccc(F)cc1F)c1ccc(S(=O)(=O)C2CC2)cc1` (stereo not shown) [Example A16, 2-(4-Cyclopropanesulfonylphenyl)-2-(2,4-difluorophenoxy)-N-[1,3,4]thiadiazol-2-yl-acetamide] were 5.15 and 90%.
Taken in the same sequence, the figures for `O=C(Nc1nncs1)C(Oc1ccc(F)cc1F)c1ccc(S(=O)(=O)C2CCCC2)cc1` (stereo not shown) [Example A27, 2-(4-Cyclopentanesulfonylphenyl)-2-(2,4-difluorophenoxy)-N-[1,3,4]thiadiazol-2-yl-acetamide] were 5.90 and 90%.
On the same counts, the results for `O=C(Nc1ncc(F)s1)C(Oc1ccc2[nH]ccc2c1)c1ccc(S(=O)(=O)C2CC2)cc1` (stereo not shown) [Example A28, 2-(4-Cyclopropanesulfonylphenyl)-N-(5-fluorothiazol-2-yl)-2-(1H-indol-5-yloxy)acetamide] are 6.19 and 90%.
Turning to `CC(=O)Nc1cccc(OC(C(=O)Nc2ncc(F)s2)c2ccc(S(=O)(=O)C3CC3)cc2)c1` (stereo not shown) [Example A29, 2-(3-Acetylaminophenoxy)-2-(4-cyclopropanesulfonylphenyl)-N-(5-fluoro-thiazol-2-yl)acetamide], the pEC50 is 6.23 and the Emax is 90%.
Consider `O=C(Nc1ncc(F)s1)C(Oc1ccc(F)cc1F)c1ccc(S(=O)(=O)C2CCCC2)c(Cl)c1` (stereo not shown) [Example A36, 2-(3-Chloro-4-cyclopentanesulfonylphenyl)-2-(2,4-difluorophenoxy)-N-(5-fluoro-thiazol-2-yl)acetamide], for which the negative-log EC50 (pEC50) was 6.96 and the Emax is 95%.
As to `O=C(Nc1cc[nH]n1)C(Oc1ccc(F)cc1F)c1ccc(S(=O)(=O)C2CCCC2)c(Cl)c1` (stereo not shown) [Example A37, 2-(3-Chloro-4-cyclopentanesulfonylphenyl)-2-(2,4-difluorophenoxy)-N-(1H-pyrazol-3-yl)acetamide], the pEC50 is 5.70 and the Emax came to 90%.
Take `Cn1ccc(NC(=O)C(Oc2ccc(F)cc2F)c2ccc(S(=O)(=O)C3CCCC3)cc2)n1` (stereo not shown) [Example A38, 2-(4-Cyclopentanesulfonylphenyl)-2-(2,4-difluorophenoxy)-N-(1-methyl-1H-pyrazol-3-yl)acetamide]: the pEC50 is 6.41 and the Emax was 95%.
In the case of `O=C(Nc1ccc(Cl)cn1)C(Oc1ccc(Cl)cc1F)c1ccc(S(=O)(=O)C2CC2)cc1` (stereo not shown) [Example A41, 2-(4-Chloro-2-fluorophenoxy)-N-(5-chloropyridin-2-yl)-2-(4-cyclopropanesulfonylphenyl)-acetamide], the pEC50 is 6.34 and the maximal response (Emax) was 90%.
On the same counts, the results for `O=C(Nc1ncc(F)s1)C(Oc1ccc(Cl)cc1F)c1ccc(S(=O)(=O)C2CC2)cc1` (stereo not shown) [Example A42, 2-(4-Chloro-2-fluorophenoxy)-2-(4-cyclopropanesulfonylphenyl)-N-(5-fluorothiazol-2-yl)acetamide] are 6.92 and 95%.
Consider `Cc1cnc(NC(=O)C(Oc2ccc(Cl)cc2F)c2ccc(S(=O)(=O)C3CC3)cc2)s1` (stereo not shown) [Example A43, 2-(4-Chloro-2-fluorophenoxy)-2-(4-cyclopropanesulfonylphenyl)-N-(5-methylthiazol-2-yl)acetamide], for which the pEC50 is 6.82 and the maximal response (Emax) was 95%.
For `O=C(Nc1cc[nH]n1)C(Oc1ccc(Cl)cc1F)c1ccc(S(=O)(=O)C2CC2)cc1` (stereo not shown) [Example A45, 2-(4-Chloro-2-fluorophenoxy)-2-(4-cyclopropanesulfonylphenyl)-N-(1H-pyrazol-3-yl)acetamide], the pEC50 is 5.89 and the Emax stood at 90%.
As to `Cn1ccc(NC(=O)C(Oc2ccc(Cl)cc2F)c2ccc(S(=O)(=O)C3CC3)cc2)n1` (stereo not shown) [Example A46, 2-(4-Chloro-2-fluorophenoxy)-2-(4-cyclopropanesulfonylphenyl)-N-(1-methyl-1H-pyrazol-3-yl)acetamide], the pEC50 is 5.86 and the maximal effect (Emax) turned out to be 90%.
On the same counts, the results for `O=C(Nc1cnccn1)C(Oc1ccc(Cl)cc1F)c1ccc(S(=O)(=O)C2CC2)cc1` (stereo not shown) [Example A47, 2-(4-Chloro-2-fluorophenoxy)-2-(4-cyclopropanesulfonylphenyl)-N-pyrazin-2-yl-acetamide] are 5.92 and 90%.
On to `CC(C)Oc1ccc2nc(NC(=O)C(OC3CCOCC3)c3ccc(S(=O)(=O)C4CC4)cc3)sc2n1` (stereo not shown) [Example A82, 2-(4-Cyclopropanesulfonyl-phenyl)-N-(5-isopropoxy-thiazolo[5,4-b]pyridin-2-yl)-2-(tetrahydro-pyran-4-yloxy)-acetamide], for which the pEC50 was 6.62 and the Emax turned out to be 94%.
On the same counts, the results for `O=C(Nc1ncc(F)s1)C(OC1CCOCC1)c1ccc(S(=O)(=O)C2CC2)cc1` (stereo not shown) [Example A114, 2-(4-Cyclopropanesulfonyl-phenyl)-N-(5-fluoro-thiazol-2-yl)-2-(tetrahydro-pyran-4-yloxy)-acetamide] are 6.82 and 92%.
On the same counts, the results for `N#Cc1ccc(Oc2cnc(NC(=O)C(OC3CCOCC3)c3ccc(S(=O)(=O)C4CC4)cc3)s2)cc1` (stereo not shown) [Example A117, N-[5-(4-Cyano-phenoxy)-thiazol-2-yl]-2-(4-cyclopropanesulfonyl-phenyl)-2-(tetrahydro-pyran-4-yloxy)-acetamide] are 6.82 and 92%.
